In patent US20070219185A1, “Preventive or therapeutic agent for neuropathic pain” (priority 2004, published 2007):
One block for each molecule: values may come before it.

Tests used:
[1] = test system: STZ-induced diabetic rats; experiment: Nociceptive threshold in STZ-induced diabetic rats (single administration), Randall-Selitto method; assay type: in vivo, rat; details: for Nociceptive threshold before administration / Nociceptive threshold after administration: mean±SE; for Nociceptive threshold after administration: one hour after administration
Description: Measurement of the Nociceptive Threshold in STZ-Induced Diabetic Rats (Single Administration)
STZ (50 mg/kg) was administered intravenously to male SD stain rats to induce diabetes mellitus. Test articles were administered 14 days later (10 rats in each group). Test articles used were clonidine as the α2 AR stimulant, terbutaline as the β2 AR stimulant and the above-mentioned Compound 1. Normal and Control groups received the medium (0.5% methylcellulose). Before and one hour after administration of test articles, the nociceptive threshold against pressure stimulation given to the right hind-paw of rats was measured by Randall-Selitto method, and compared with that in Control group.

[2] = test system: STZ-induced diabetic rats; experiment: Nociceptive threshold in STZ-induced diabetic rats (repeated administration), Randall-Selitto method; assay type: in vivo, rat; details: for Nociceptive threshold before administration / Nociceptive threshold after administration / nociceptive threshold following repeated administration for 14 days: Example 2; for Nociceptive threshold before administration / Nociceptive threshold after administration: 14 times, mean±SE; for Nociceptive threshold before administration: before the final administration; for Nociceptive threshold after administration: one hour after the final administration; for nociceptive threshold following repeated administration for 14 days: H group (clonidine 1.0 mg/kg subcutaneous; terbutaline 10 mg/kg oral), versus Control group; for nociceptive threshold after 14-day repeated, sole administration: Example 3, FIG. 1, L and M groups (clonidine 0.1, 0.3 mg/kg subcutaneous; terbutaline 1, 3 mg/kg oral)
Description: Measurement of the Nociceptive Threshold in STZ-Induced Diabetic Rats (Repeated Administration)
STZ (50 mg/kg) was administered intravenously to male SD stain rats to induce diabetes mellitus. […] Normal and Control groups received the medium (0.5% methylcellulose). Before the final administration (before administration of test articles) and after the final administration (one hour after the administration), the nociceptive threshold against pressure stimulation given to the right hind-paw of rats was measured by Randall-Selitto method, and compared with that in Control group.

[3] = biological target: T1, β2 AR (Rattus norvegicus, UniProt P10608); experiment: Receptor binding test of β2 AR; details: 3H-dihydroalprenolol; fascia of rat gravid uterus; read-out: binding affinity (IC50 value) to β2 AR
T1 construct: the fascia of gravid uterus (β2 AR) as the sources of receptors; from tissue; host or cells: rat gravid uterus (fascia/membrane specimen)
Description: Receptor Binding Tests of α2 AR and β2 AR
Receptor binding tests were conducted in ^3H-p-aminoclonidine and ^3H-dihydroalprenolol (3 rats in each) using specimens of the membrane of rat cerebral cortex (α2 AR) and the fascia of gravid uterus (β2 AR) as the sources of receptors. The binding ability of Compound 1 to α2 AR and β2 AR were obtained by calculating binding inhibition rates (IC50 values) of Compound 1 against the binding abilities of the above-mentioned tracers with both receptors.

[4] = test system: Seltzer model rats; experiment: Nociceptive threshold in Seltzer model rats (single administration), Randall-Selitto method; assay type: in vivo, rat; details: Example 6, FIG. 3, 10 mg/kg oral, one hour after administration
Description: Measurement of the Nociceptive Threshold in Seltzer Model Rats (Single Administration)
Ten, 9-week old male SD rats were anesthetized with pentobarbital (Nembutal injection®), and the right sciatic nerve was exposed. In Nerve ligation group (7 rats), half of the dorsal portion of the nerve was ligated using 5-0 nylon thread. In Normal group (3 rats), the sciatic nerve was only exposed. Three weeks after the model was created, the control group received the medium (0.5% methylcellulose) and Nerve ligation group was given orally test articles. Before the administration (before administration of test articles) and after administration (one hour after the administration of test articles), the nociceptive threshold against pressure stimulation given to the right hind-paw of rats was measured by Randall-Selitto method. Results before and after administration were compared.

[5] = test system: Seltzer model rats; experiment: Nociceptive threshold in Seltzer model rats (repeated administration), Randall-Selitto method; assay type: in vivo, rat; details: Example 7, FIG. 4; 10 mg/kg oral, 14-day repeated
Description: Measurement of the Nociceptive Threshold in Seltzer Model Rats (Repeated Administration)
Thirty, 7-week old male SD rats were anesthetized with pentobarbital (Nembutal injection®), and the right sciatic nerve was exposed. In the nerve ligation group (20 rats), half of the dorsal portion of the nerve was ligated using 6-0 silk thread. In the normal group (10 rats), the sciatic nerve was only exposed. Beginning the following day of the model creation, test articles were administered orally once a day, repeatedly, 14 times in total. Normal and Control groups received the medium (0.5% methyl-cellulose) and Nerve ligation group was given orally test articles. One hour after the final administration, the nociceptive threshold against pressure stimulation given to the right hind-paw of rats was measured by Randall-Selitto method, and compared with Control group.

[6] = Example 1, H group 1.0 mg/kg subcutaneous
[7] = Example 1, L group 0.1 mg/kg subcutaneous
[8] = H group 1.0 mg/kg subcutaneous once a day
[9] = L group 0.1 mg/kg subcutaneous once a day
[10] = M group 0.3 mg/kg subcutaneous once a day
[11] = Example 1, H group 10.0 mg/kg oral
[12] = Example 1, L group 1.0 mg/kg oral
[13] = H group 10.0 mg/kg oral once a day
[14] = L group 1.0 mg/kg oral once a day
[15] = M group 3.0 mg/kg oral once a day

T1 sequence (P10608 whole entry): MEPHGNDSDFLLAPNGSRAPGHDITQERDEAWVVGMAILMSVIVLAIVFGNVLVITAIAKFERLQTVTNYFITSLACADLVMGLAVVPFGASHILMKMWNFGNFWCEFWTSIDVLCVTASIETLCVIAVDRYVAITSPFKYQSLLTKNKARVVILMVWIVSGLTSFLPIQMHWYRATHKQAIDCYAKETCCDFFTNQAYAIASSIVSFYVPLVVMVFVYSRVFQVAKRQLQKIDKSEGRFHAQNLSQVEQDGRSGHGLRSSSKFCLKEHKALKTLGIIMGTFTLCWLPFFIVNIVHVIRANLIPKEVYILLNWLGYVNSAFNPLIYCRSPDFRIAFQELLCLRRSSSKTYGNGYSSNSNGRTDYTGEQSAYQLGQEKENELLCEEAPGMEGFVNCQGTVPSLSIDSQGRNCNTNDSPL

Compound: Clc1cccc(Cl)c1N=C1NCCN1 [Clonidine, clonidine]
analgesic effect compared with Control group ([1]; Example 1, H group 1.0 mg/kg subcutaneous, after administration): apparent analgesic effect
Nociceptive threshold before administration [1, 6]: 115.4 ± 8.9 g
Nociceptive threshold after administration [1, 6]: 325.8 ± 29.8 g
Nociceptive threshold before administration [1, 7]: 122.8 ± 7.5 g
Nociceptive threshold after administration [1, 7]: 155.8 ± 16.3 g
Nociceptive threshold before administration [2, 8]: 97.2 ± 14.5 g
Nociceptive threshold after administration [2, 8]: 254.4 ± 33.3 g
nociceptive threshold following repeated administration for 14 days [2]: increased significantly
Nociceptive threshold before administration [2, 9]: 129.2 ± 15.9 g
Nociceptive threshold after administration [2, 9]: 180.6 ± 24.4 g
Nociceptive threshold before administration [2, 10]: 104.2 ± 13.8 g
Nociceptive threshold after administration [2, 10]: 115.2 ± 18.2 g
nociceptive threshold after 14-day repeated, sole administration [2]: in neither L groups or M groups of either test articles, the nociceptive threshold increased

IC50 [3]: 14 nM
Compound: CN(C)C(=O)COc1ccc2c(c1)C[C@@H](NC[C@H](O)c1ccc(O)c(CO)c1)CC2 [Compound 1, (-)-bis{2-[(2S)-2-[{(2R)-2-hydroxy-2-(4-hydroxy-3-hydroxymethyl-phenyl)ethyl}amino]-1,2,3,4-tetrahydronaphthalen-7-yloxy]-N,N-dimethylacetamide}sulfate dihydrate]
Nociceptive threshold before administration ([1]; Example 4, 0.3 mg/kg oral): 71.8 ± 5.3 g
Nociceptive threshold after administration ([1]; Example 4, 0.3 mg/kg oral): 117.6 ± 10.7 g
Nociceptive threshold before administration ([1]; Example 4, 1.0 mg/kg oral): 95.0 ± 5.1 g
Nociceptive threshold after administration ([1]; Example 4, 1.0 mg/kg oral): 131.0 ± 12.3 g
analgesic effects ([1]; Example 4, 3 mg/kg and 10 mg/kg oral): apparent analgesic effects
Nociceptive threshold before administration ([1]; Example 4, 3.0 mg/kg oral): 92.0 ± 13.3 g
Nociceptive threshold after administration ([1]; Example 4, 3.0 mg/kg oral): 174.6 ± 15.4 g
Nociceptive threshold before administration ([1]; Example 4, 10.0 mg/kg oral): 89.0 ± 10.2 g
Nociceptive threshold after administration ([1]; Example 4, 10.0 mg/kg oral): 253.4 ± 28.3 g
nociceptive thresholds after administration, dose dependence ([1]; Example 4, 0.3, 1, 3 and 10 mg/kg oral): increased dose-dependently
nociceptive threshold of Nerve ligation group in comparison with that before administration [4]: improved significantly
nociceptive threshold of the right hind-paw in comparison with that of Control group [5]: improved significantly
nociceptive thresholds after administration, dose dependence ([2]; Example 5, FIG. 2, 0.3, 1, 3 and 10 mg/kg oral, 14-day repeated): clearly increased dose-dependently beginning at dosage of 0.3 mg/kg
nociceptive threshold compared with Normal group ([2]; Example 5, FIG. 2, oral, 14-day repeated): improved the nociceptive threshold to the same level as in Normal group
effect of repeated administration compared with single administration ([2]; Example 5, oral, 14-day repeated versus single): stronger effect increasing the nociceptive threshold than single administration

Compound: CC(C)(C)NCC(O)c1cc(O)cc(O)c1 (centres unmarked) [Terbutaline, terbutaline]
Nociceptive threshold before administration [1, 11]: 122.6 ± 14.5 g
Nociceptive threshold after administration [1, 11]: 146.8 ± 20.7 g
Nociceptive threshold before administration [1, 12]: 134.2 ± 6.3 g
Nociceptive threshold after administration [1, 12]: 152.8 ± 12.7 g
Nociceptive threshold before administration [2, 13]: 228.2 ± 11.1 g
Nociceptive threshold after administration [2, 13]: 229.0 ± 14.8 g
nociceptive threshold following repeated administration for 14 days [2]: increased significantly
Nociceptive threshold before administration [2, 14]: 113.8 ± 11.9 g
Nociceptive threshold after administration [2, 14]: 115.2 ± 12.6 g
Nociceptive threshold before administration [2, 15]: 155.4 ± 32.0 g
Nociceptive threshold after administration [2, 15]: 167.8 ± 32.3 g
nociceptive threshold after 14-day repeated, sole administration [2]: in neither L groups or M groups of either test articles, the nociceptive threshold increased
